Literature values, collected in patent US7718201B2, “Method of inducing liver phase II enzymes” (Access Business Group International LLC, priority 2005, dated 2010).

Tested on: quinone reductase in Hepa1c1c7 cells
Conditions: reference values; broccoli dependent on variety, form, extraction conditions

Question: Which “Phase II enzyme induction activity (reported)” value does the source give for `C[S+]([O-])CCCCN=C=S` (stereo not shown) [sulforaphane] here?
Answer: 10^6 U/g
